According to PMC8723806 (Journal of the Iranian Chemical Society, 2022):

What was measured:
COX-2 = target: T1, COX-2 (Ovis aries, UniProt P79208); assay: In vitro COX-2 inhibition, colorimetric enzyme immune assay; format: biochemical, ovine; conditions: for COX-2 SI (COX-1 IC50/COX-2 IC50): in vitro COX-2 selectivity index; for COX-2 inhibition, in words: compared with celecoxib
T1 sequence (P79208 17-603): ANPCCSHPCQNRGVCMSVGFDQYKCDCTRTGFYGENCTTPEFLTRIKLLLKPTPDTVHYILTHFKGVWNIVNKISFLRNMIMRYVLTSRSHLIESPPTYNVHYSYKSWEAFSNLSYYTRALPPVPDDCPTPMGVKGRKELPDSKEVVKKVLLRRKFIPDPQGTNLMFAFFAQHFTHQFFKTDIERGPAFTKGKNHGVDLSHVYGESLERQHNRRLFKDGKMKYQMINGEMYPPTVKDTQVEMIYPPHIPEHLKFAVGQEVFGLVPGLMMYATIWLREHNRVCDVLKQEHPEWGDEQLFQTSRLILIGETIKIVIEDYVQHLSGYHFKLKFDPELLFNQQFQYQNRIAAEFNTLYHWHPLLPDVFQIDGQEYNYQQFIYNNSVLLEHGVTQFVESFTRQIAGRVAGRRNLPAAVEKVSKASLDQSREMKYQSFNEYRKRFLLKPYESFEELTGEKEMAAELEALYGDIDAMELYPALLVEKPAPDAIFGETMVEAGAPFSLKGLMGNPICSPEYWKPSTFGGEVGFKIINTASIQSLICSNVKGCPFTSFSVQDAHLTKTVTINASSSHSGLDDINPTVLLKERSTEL

COX-1 = target: T2, COX-1 (Ovis aries, UniProt P05979); assay: In vitro COX-1 inhibition, colorimetric enzyme immune assay; format: biochemical, ovine
T2 sequence (P05979 25-600): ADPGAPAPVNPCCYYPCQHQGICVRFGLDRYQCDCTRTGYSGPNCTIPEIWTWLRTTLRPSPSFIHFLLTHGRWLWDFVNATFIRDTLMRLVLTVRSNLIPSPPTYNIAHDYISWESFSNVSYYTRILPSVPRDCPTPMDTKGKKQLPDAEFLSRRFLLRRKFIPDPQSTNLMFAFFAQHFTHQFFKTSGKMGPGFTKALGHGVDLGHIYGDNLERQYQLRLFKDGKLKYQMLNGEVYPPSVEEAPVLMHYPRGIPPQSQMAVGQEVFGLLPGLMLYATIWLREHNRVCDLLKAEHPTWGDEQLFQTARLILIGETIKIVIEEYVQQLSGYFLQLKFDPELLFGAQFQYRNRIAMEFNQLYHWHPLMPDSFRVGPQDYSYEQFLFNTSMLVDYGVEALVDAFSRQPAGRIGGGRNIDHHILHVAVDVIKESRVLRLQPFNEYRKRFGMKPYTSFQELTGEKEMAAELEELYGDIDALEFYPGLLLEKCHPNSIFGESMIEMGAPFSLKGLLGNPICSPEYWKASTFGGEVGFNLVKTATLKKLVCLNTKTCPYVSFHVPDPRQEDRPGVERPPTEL

SMILES | COX-2 SI (COX-1 IC50/COX-2 IC50) (COX-2) | COX-2 inhibition, in words (COX-2) | IC50 (COX-1) [µM]
COc1ccccc1-c1ccc(F)c(OC(F)(F)F)c1 [Compound 3h, 4'-Fluoro-2-methoxy-3'-(trifluoromethoxy)biphenyl] | 67.31 | – | –
O=[N+]([O-])c1ccc(-c2ccccc2F)cc1 [Compound 3a, 2-Fluoro-4'-nitrobiphenyl] | 84.16 | – | –
COc1ccccc1-c1ccc([N+](=O)[O-])cc1 [Compound 3f, 2-Methoxy-4'-nitrobiphenyl] | 32.55 | less potency | –
O=[N+]([O-])c1cccc(-c2ccccc2F)c1F [Compound 3d, 2,2'-Difluoro-3-nitrobiphenyl] | 68.06 | – | –
Fc1ccc(-c2ccccc2F)cc1OC(F)(F)F [Compound 3c, 2,4'-Difluoro-3'-(trifluoromethoxy)biphenyl] | 109.9 | – | –
COc1ccc(F)c(-c2ccccc2OC)c1 [Compound 3j, 2-Fluoro-2',5-dimethoxybiphenyl] | – | less potency | –
COc1ccccc1-c1ccc(F)c(C(F)(F)F)c1 [Compound 3g, 4'-Fluoro-2-methoxy-3'-(trifluoromethyl)biphenyl] | 76.84 | – | –
COc1ccccc1-c1cccc([N+](=O)[O-])c1F [Compound 3i, 2-Fluoro-2'-methoxy-3-nitrobiphenyl] | 54.94 | less potency | –
Fc1ccccc1-c1ccc(F)c(C(F)(F)F)c1 [Compound 3b, 2,4'-Difluoro-3'-(trifluoromethyl) biphenyl] | 101.99 | – | 11.2
